Results on 19 compounds are retold here after patent publication US20080176857A1, “4-Piperazinnylthieno[2,3-d]Pyrimidine Compounds as Platelet Aggregation Inhibitors” (priority 2005, published 2008).

Each structure is given as a SMILES string. Values joined by “and” are separate entries in the source; they are usually repeats but may differ in a detail not shown here. Identical values can stand only once.

The target in this test is P2Y12 receptor (Homo sapiens, UniProt Q9H244). As to the kind of experiment: [33P]-2MeS-ADP binding to recombinant human P2Y12 membranes (Assay 3). As to conditions: for IC50 / Ki: HEK cell membranes expressing human P2Y12, competition with 33P 2MeS-ADP; for inhibition at 10 µM / % Inhibition: 10 μM. The arrangement: expressed in transfected cells; host or cells: HEK cells. Here is the method: 3. Human P2Y12 Recombinant Cell Membrane Binding Assay with ^33P 2MeS-ADP.
The ability of a test compound to bind to the P2Y12 receptor was evaluated in a recombinant cell membrane binding assay. In this competitive binding assay, the test compound competed against a radiolabelled agonist for binding to the P2Y12 receptor, expressed on the cell membrane. Inhibition of binding of the labeled material was measured and correlated to the amount and potency of the test compound. Data from this assay are presented in Table F. This binding assay is a modification of the procedure in Takasaki, J. et. al, Mol. Pharmacol., 2001, Vol. 60, pg. 432.
HEK cells were transfected with the pDONR201P2Y12 vector and cultured in MEM with GlutaMAX I, Earle's salts, 25 mM HEPES (Gibco # 42360-032) containing 10% dialyzed FBS (Gibco # 26400-044), 100 μM nonessential amino acids (Gibco # 11140-050), 1 mM sodium pyruvate (Gibco # 11360-070), 0.05% geneticin (Gibco #10131-027), 3 μg/mL blasticidin (Fluka brand from Sigma # 15205), and 0.5 μg/mL puromycin (Sigma # P-8833).
Confluent cells were washed once with cold DPBS (Gibco # 14190-136). Fresh DPBS was added and the cells were scraped and centrifuged at 500×g for 5 minutes at 4° C. The cell pellets were resuspended in TEE buffer (25 mM Tris, 5 mM EDTA, 5 mM EGTA) containing 1 protease inhibitor cocktail tablet (Roche # 1 873 580) per 50 mL (called TEE+Complete) and can be flash frozen at this point.
In one embodiment, frozen cell pellets were used to prepare the membranes. In that embodiment, the frozen cell pellets were thawed on ice. In another embodiment, cell pellets may be used without flash freezing before moving on to the next step.
Cell pellets were resuspended in TEE buffer+Complete and homogenized in a glass dounce for 12 strokes. The cell suspension was centrifuged at 500×g for 5 minutes at 4° C. The supernatant was saved and centrifuged at 20,000×g for 20 minutes at 4° C. This supernatant was discarded and the cell pellet resuspended in TEE buffer+Complete and homogenized in a glass dounce for 12 strokes. This suspension was centrifuged at 20,000×g for 20 minutes at 4° C. and the supernatant discarded. The pellet was resuspended in assay buffer (50 mM Tris, 100 mM NaCl, 1 mM EDTA) containing one protease inhibitor cocktail tablet per 50 mL, and can be flash frozen as 1 mL aliquots at this point.
Dry compounds were diluted as 10 mM DMSO stocks and tested in a seven-point, three-fold dilution series run in triplicate beginning at 10 μM, final concentration. A 1 mM DMSO intermediate stock was made in a dilution plate and from this the seven dilutions were made to 5× the final concentration in assay buffer containing 0.02% BSA.
The plates were incubated at room temperature for 1 hour. The reaction was stopped using a cell harvester to transfer the reaction mixture onto GF/B UniFilter plates (Perkin Elmer # 6005177), and washed three times with wash buffer (50 mM Tris), filtering between each wash. The filter plates were dried for approximately 20 minutes in an oven at 50° C. Back seals were adhered to the filter plates and 25 uL of Microscint 20 scintillation fluid (Perkin Elmer # 6013621) were added. The filter plates were sealed, shaken for 30 minutes, and counted on a Top Count. Data were analyzed using a four-parameter curve fit with a fixed minimum and maximum experimentally defined as the average positive and negative controls on each plate, and with a hill slope equal to one.
The table below presents the IC50, Ki, and percent inhibition values for compounds tested in either washed human platelets membrane binding assay (assay #1 above) or recombinant cell membrane binding assay (Assay #3, above). Example number refers to the compound prepared as described in the example noted in the section Working Examples, above. The highest concentration of candidate compound tested is listed for each experimental run presented. […]

The mark [1] stands for this setting: at highest concentration tested.

Chain of P2Y12 receptor (Q9H244 whole entry): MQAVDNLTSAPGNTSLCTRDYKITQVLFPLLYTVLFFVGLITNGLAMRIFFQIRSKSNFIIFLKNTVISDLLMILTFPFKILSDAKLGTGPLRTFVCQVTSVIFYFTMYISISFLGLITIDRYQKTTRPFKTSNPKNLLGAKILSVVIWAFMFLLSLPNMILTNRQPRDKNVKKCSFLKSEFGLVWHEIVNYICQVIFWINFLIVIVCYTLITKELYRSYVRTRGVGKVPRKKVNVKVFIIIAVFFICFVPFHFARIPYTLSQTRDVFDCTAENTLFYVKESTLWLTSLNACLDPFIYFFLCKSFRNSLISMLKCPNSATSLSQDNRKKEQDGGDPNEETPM

Regarding `CCOc1cccc(C(=O)N2CCN(c3nc(SCC(=O)OC)nc4sc(CC)cc34)CC2)c1` [Example 76, Methyl ({4-[4-(3-ethoxybenzoyl)piperazin-1-yl]-6-ethylthieno[2,3-d]pyrimidin-2-yl}thio)acetate], the IC50 was 1170 nM and the Ki stood at 730 nM. For the same compound, under setting [1], the inhibition at 10 µM amounted to 75.9%.

For the compound `CCc1cc2c(N3CCN(C(=O)c4csc(-c5ccccc5)n4)CC3)nc(SCC(=O)OC)nc2s1` [Example 69, Methyl [(6-ethyl-4-{4-[(2-phenyl-1,3-thiazol-4-yl)carbonyl]piperazin-1-yl}thieno[2,3-d]pyrimidin-2-yl)thio]acetate], the IC50 came to 87.8 nM and the Ki came out at 53 nM. Further, under setting [1], the inhibition at 10 µM was 56.8%.

For the compound `CCc1cc2c(N3CCN(C(=O)c4ccc5cc[nH]c5c4)CC3)nc(SCC(=O)OC)nc2s1` [Example 63, Methyl ({6-ethyl-4-[4-(1H-indol-6-ylcarbonyl)piperazin-1-yl]thieno[2,3-d]pyrimidin-2-yl}thio)acetate], the IC50 was 1880 nM and the Ki turned out to be 1130 nM. Also, the inhibition at 10 µM under setting [1] came out at 68.1%.

`CCc1cc2c(N3CCN(C(=O)c4ccc(C)cc4)CC3)nc(SCC(=O)OC)nc2s1` [Example 45, Methyl ({6-ethyl-4-[4-(4-methylbenzoyl)piperazin-1-yl]thieno[2,3-d]pyrimidin-2-yl}thio)acetate]: the IC50 was greater than 10000 nM and the Ki is greater than 6700 nM. In addition, the inhibition at 10 µM under setting [1] turned out to be 42.5%.

For `CCc1cc2c(N3CCN(C(=O)Cc4ccccc4)CC3)nc(SCCC(=O)OC)nc2s1` [Example 82, methyl 3-({6-ethyl-4-[4-(phenylacetyl)piperazin-1-yl]thieno[2,3-d]pyrimidin-2-yl}thio)propanoate], the half-maximal inhibitory concentration (IC50) was 390 nM and 1170 nM and 220 nM and 270 nM and 400 nM; the inhibition constant (Ki) was 212 nM and 667 nM and 120 nM and 150 nM and 230 nM. For the same compound, under setting [1], the “% Inhibition” value was 86.00% and 93.95% and 94.10% and 89.55%; the inhibition at 10 µM came to 92.7%.

Take `C#CCCCC(=O)N1CCN(c2nc(SCC(=O)OC)nc3sc(CC)cc23)CC1` [Example 35, Methyl {[6-ethyl-4-(4-hex-5-ynoylpiperazin-1-yl)thieno[2,3-d]pyrimidin-2-yl]thio}acetate]: the IC50 was greater than 10000 nM and the inhibition constant (Ki) was greater than 6700 nM. Further, the inhibition at 10 µM under setting [1] is -4.55%.

`CCc1cc2c(N3CCN(C(=O)c4cc(N(C)C)nc(N(C)C)n4)CC3)nc(SCC(=O)OC)nc2s1` [Example 72, Methyl {[4-(4-{[2,6-bis(dimethylamino)pyrimidin-4-yl]carbonyl}piperazin-1-yl)-6-ethylthieno[2,3-d]pyrimidin-2-yl]thio}acetate]: the IC50 was found to be 681 nM and the Ki worked out at 423 nM. Moreover, under setting [1], the inhibition at 10 µM was 88.7%.

As to `CCc1cc2c(N3CCN(C(=O)c4ccc5[nH]ccc5c4)CC3)nc(SCC(=O)OC)nc2s1` [Example 62, Methyl ({6-ethyl-4-[4-(1H-indol-5-ylcarbonyl)piperazin-1-yl]thieno[2,3-d]pyrimidin-2-yl}thio)acetate], the IC50 amounted to 5860 nM and the Ki was 3530 nM. In addition, under setting [1], the inhibition at 10 µM was determined as 50.9%.

For the compound `CCOc1ccc(C(=O)N2CCN(c3nc(SCC(=O)OC)nc4sc(CC)cc34)CC2)cc1` [Example 57, Methyl ({4-[4-(4-ethoxybenzoyl)piperazin-1-yl]-6-ethylthieno[2,3-d]pyrimidin-2-yl}thio)acetate], the half-inhibitory concentration (IC50) was found to be 1050 nM and the Ki is 524 nM. The inhibition at 10 µM under setting [1] turned out to be 80.8%.

As for `CCc1cc2c(N3CCN(C(=O)Cc4ccccc4)CC3)nc(SCC(=O)OC)nc2s1` [Example 7, methyl ({6-ethyl-4-[4-(phenylacetyl)piperazin-1-yl]thieno[2,3-d]pyrimidin-2-yl}thio)acetate], the IC50 was 1020 nM and 380 nM and 420 nM and 320 nM; the Ki is 582 nM and 210 nM and 240 nM and 174 nM. For the same compound, under setting [1], the “% Inhibition” value was 89.51% and 95.92% and 94.06%; the inhibition at 10 µM was 92.9%.

With `CCc1cc2c(N3CCN(C(=O)c4ccc(-c5ccccc5)cc4)CC3)nc(SCCNC(C)=O)nc2s1` [Example 27, N-[2-({4-[4-(1,1′-Biphenyl-4-ylcarbonyl)piperazin-1-yl]-6-ethylthieno[2,3-d]pyrimidin-2-yl}thio)ethyl]acetamide], the IC50 was found to be 100 nM and the Ki is 58 nM. The inhibition at 10 µM under setting [1] amounted to 96.5%.

On to `CCc1cc2c(N3CCN(C(=O)c4csc(-c5cccnc5)n4)CC3)nc(SCC(=O)OC)nc2s1` [Example 81, Methyl [(6-ethyl-4-{4-[(2-pyridin-3-yl-1,3-thiazol-4-yl)carbonyl]piperazin-1-yl}thieno[2,3-d]pyrimidin-2-yl)thio]acetate], for which the IC50 stood at 1720 nM and the Ki is 1070 nM. The inhibition at 10 µM under setting [1] was 76.7%.

For `CCCCOc1ccc(C(=O)N2CCN(c3nc(SCC(=O)OC)nc4sc(CC)cc34)CC2)cc1` [Example 73, Methyl ({4-[4-(4-butoxybenzoyl)piperazin-1-yl]-6-ethylthieno[2,3-d]pyrimidin-2-yl}thio)acetate], the IC50 came to 371 nM and the inhibition constant Ki was 230 nM. Moreover, the inhibition at 10 µM under setting [1] was 82%.

On to `CCc1cc2c(N3CCN(C(=O)Cc4ccccc4)CC3)nc(SC(C)C(=O)NCC(=O)O)nc2s1` (stereo not drawn) [Example 11, N-[2-({6-Ethyl-4-[4-(phenylacetyl)piperazin-1-yl]thieno[2,3-d]pyrimidin-2-yl}thio)propanoyl]glycine], for which the IC50 was 330 nM and 230 nM and 270 nM and 328 nM; the Ki is 190 nM and 130 nM and 160 nM and 189 nM. Besides, under “at highest concentration tested, 1 μM”, the inhibition at 1 µM turned out to be 81%. Under setting [1], the “% Inhibition” value was 92.50% and 88.81%; the inhibition at 10 µM amounted to 90.5%.

`CCc1cc2c(N3CCN(C(=O)c4ccc(-c5ccccc5)cc4)CC3)nc(SCCO)nc2s1` [Example 32, 2-({4-[4-(1′-Biphenyl-4-ylcarbonyl)piperazin-1-yl]-6-ethylthieno[2,3-d]pyrimidin-2-yl}thio)ethanol]: the IC50 turned out to be 52 nM and the Ki was found to be 29 nM. Further, the inhibition at 10 µM under setting [1] turned out to be 93.2%.

With `CCc1cc2c(N3CCN(C(=O)c4ccc(C(N)=O)cc4)CC3)nc(SCC(=O)OC)nc2s1` [Example 79, Methyl [(4-{4-[4-(aminocarbonyl)benzoyl]piperazin-1-yl}-6-ethylthieno[2,3-d]pyrimidin-2-yl)thio]acetate], the half-inhibitory concentration (IC50) is 8700 nM and the inhibition constant (Ki) was 5050 nM. Also, the inhibition at 10 µM under setting [1] was 47.7%.

With `CCc1cc2c(N3CCN(C(=O)Cc4ccccc4)CC3)nc(SC(C)C(=O)O)nc2s1` (stereo not drawn) [Example 25, 2-({6-Ethyl-4-[4-(phenylacetyl)piperazin-1-yl]thieno[2,3-d]pyrimidin-2-yl}thio)propanoic acid], the IC50 is 200 nM and 270 nM; the Ki is 110 nM and 150 nM. Moreover, under setting [1], the “% Inhibition” value came out at 94.08% and the inhibition at 10 µM stood at 88.6%.

As for `CCc1cc2c(N3CCN(C(=O)CC(C)CC(C)(C)C)CC3)nc(SCC(=O)OC)nc2s1` (stereo not drawn) [Example 39, Methyl ({6-ethyl-4-[4-(3,5,5-trimethylhexanoyl)piperazin-1-yl]thieno[2,3-d]pyrimidin-2-yl}thio)acetate], the IC50 is greater than 10000 nM and the Ki is greater than 6700 nM. Under setting [1], the inhibition at 10 µM was determined as 43.1%.

For the compound `CCc1cc2c(N3CCN(C(=O)Cc4ccccc4)CC3)nc(SC(C)C(C)=O)nc2s1` (stereo not drawn) [Example 14, 3-({6-Ethyl-4-[4-(phenylacetyl)piperazin-1-yl]thieno[2,3-d]pyrimidin-2-yl}thio)butan-2-one], the IC50 is 290 nM and 330 nM; the Ki is 160 nM and 200 nM. Under setting [1], the “% Inhibition” value is recorded as 83.72% and the inhibition at 10 µM is 89.9%.

Usually IC50 stands for the midpoint of a concentration-inhibition curve. The Ki is a measure of affinity in units of concentration, obtained from inhibition or displacement. Broadly, the inhibition is the relative decrease from the control value, in per cent. What is called % Inhibition is the change of the read-out against control, counted positive when it falls.
